Data as given in ChEMBL document CHEMBL1122656, “Synthesis and antiviral evaluation of carbocyclic analogues of ribofuranosides of 2-amino-6-substituted-purines and of 2-amino-6-substituted-8-azapurines” (1984).
Values after ≈ are worked out from the molar mass of the structure shown.

How the values were obtained:
Format in all cases: functional
Mus musculus [1] = assay: In vivo efficacy against L1210 leukemic cells, inoculated intraperitoneally in mice at schedule - q.d. 1-9. Dose 400 mg/kg.; conditions: route intraperitoneal
[2] = Cytotoxicity to cancer cells (KB cells) in culture was determined and the effective dose that causes 50 % cytotoxicity was reported.; conditions: Homo sapiens, Cancer cell lines; read-out: ED50 (the source's name)
HEp-2 [3] = assay: In vitro inhibition of cytopathogenicity induced by HF strain of Herpes Simplex Virus (HSV-1) replicating in human epidermoid carcinoma no.2 (H.Ep-2) cells
Mus musculus [4] = assay: In vivo efficacy against L1210 leukemic cells, inoculated intraperitoneally in mice at schedule - q.d. 1-9. Dose 100 mg/kg; conditions: route intraperitoneal
Mus musculus [5] = assay: In vivo efficacy against L1210 leukemic cells, inoculated intraperitoneally in mice at schedule - q.d. 1. Dose 75 mg/kg*-Diiference in weight change(T-C)by day 5 was -5.6g at 150 mg/kg &[…] at 75 mg/kg
Mus musculus [6] = assay: In vivo efficacy against L1210 leukemic cells, inoculated intraperitoneally in mice at schedule - q.d. 1-9. Dose 38 mg/kg*-toxic; conditions: route intraperitoneal
HEp-2 [7] = assay: In vitro inhibition of cytopathogenicity induced by Lederle Chorioallantoic strain of vaccinia virus replicating in human epidermoid carcinoma
Mus musculus [8] = assay: In vivo efficacy against L1210 leukemic cells, inoculated intraperitoneally in mice at schedule - q.d. 1,5,9. Dose 19 mg/kg; conditions: route intraperitoneal
Mus musculus [9] = assay: In vivo efficacy against L1210 leukemic cells, inoculated intraperitoneally in mice at schedule - q.d. 1,5,9. Dose 38 mg/kg; conditions: route intraperitoneal
Mus musculus [10] = assay: In vivo efficacy against L1210 leukemic cells, inoculated intraperitoneally in mice at schedule - q.d. 1-9. Dose 9 mg/kg; conditions: route intraperitoneal
Mus musculus [11] = assay: In vivo efficacy against L1210 leukemic cells, inoculated intraperitoneally in mice at schedule - q.d. 1,5,9. Dose 75 mg/kg*-Diiference in weight change(T-C)by day 5 was -5.6g at 150 mg/kg &[…] at 75 mg/kg
Mus musculus [12] = assay: In vivo efficacy against L1210 leukemic cells, inoculated intraperitoneally in mice at schedule - q.d. 1-9. Dose 19 mg/kg*-toxic; conditions: route intraperitoneal
Mus musculus [13] = assay: In vivo efficacy against L1210 leukemic cells, inoculated intraperitoneally in mice at schedule - q.d. 1 Dose 150 mg/kg.*-Diiference in weight change(T-C)by day 5 was -5.6g at 150 mg/kg &[…] at 75 mg/kg
Mus musculus [14] = assay: In vivo efficacy against L1210 leukemic cells, inoculated intraperitoneally in mice at schedule - day 1. Dose 400 mg/kg; conditions: route intraperitoneal
Mus musculus [15] = assay: In vivo efficacy against L1210 leukemic cells, inoculated intraperitoneally in mice at schedule - q.d. 1-9. Dose 200 mg/kg.*-toxic; conditions: route intraperitoneal
Mus musculus [16] = assay: In vivo efficacy against L1210 leukemic cells, inoculated intraperitoneally in mice at schedule - q.d. 1-9. Dose 100 mg/kg*-toxic; conditions: route intraperitoneal
HEp-2 [17] = assay: In vitro inhibition of cytopathogenicity induced by Lederle Chorioallantoic strain of vaccinia virus replicating in human epidermoid carcinoma no.2 (H.Ep-2) cells
Mus musculus [18] = assay: In vivo efficacy against L1210 leukemic cells, inoculated intraperitoneally in mice at schedule - q.d. 1-9. Dose 50 mg/kg; conditions: route intraperitoneal
Mus musculus [19] = assay: In vivo efficacy against L1210 leukemic cells, inoculated intraperitoneally in mice at schedule - q.d. 1-9. Dose 25 mg/kg; conditions: route intraperitoneal

SMILES | EC50 [2] [mg/L] | Virus rating (HEp-2 [3]) [VR] | MIC (HEp-2 [3]) [mg/L] | T/C (Mus musculus [14]) [%] | further results
Nc1nc(S)c2ncn(C3CC(CO)C(O)C3O)c2n1 (stereo not given) | 50 (≈ 168 µM) | 0 | – | – | T/C (Mus musculus [1]): 99%
Nc1ncnc2c1ncn2[C@@H]1O[C@H](CO)[C@@H](O)[C@@H]1O [VIDARABINE] | – | 2.2 | 10 (≈ 37.4 µM) | – | –
CSc1nc(N)nc2c1nnn2C1CC(CO)C(O)C1O (stereo not given) | > 100 | 0 | – | – | T/C (Mus musculus [4]): 94%
Nc1nc(O)c2ncn(C3CC(CO)C(O)C3O)c2n1 (stereo not given) | > 100 | 0 | – | – | T/C (Mus musculus [5]): 88%; T/C (Mus musculus [6]): 71%; Virus rating (HEp-2 [7]): 0 VR; T/C (Mus musculus [8]): 94%; T/C (Mus musculus [9]): 92%; T/C (Mus musculus [10]): 101%; T/C (Mus musculus [11]): 70%; T/C (Mus musculus [12]): 83%; T/C (Mus musculus [13]): 75%
Nc1nc(N)c2nnn(C3CC(CO)C(O)C3O)c2n1 (stereo not given) | > 100 | 1.4 | 100 (≈ 356 µM) | 97 | –
CSc1nc(N)nc2c1ncn2C1CC(CO)C(O)C1O (stereo not given) | > 100 | 0.1 | – | – | T/C (Mus musculus [4]): 108%
Nc1nc(Cl)c2ncn(C3CC(CO)C(O)C3O)c2n1 (stereo not given) | > 100 | 1.7 | 10 (≈ 33.4 µM) | 104 | T/C (Mus musculus [15]): 67%; T/C (Mus musculus [16]): 85%; MIC (HEp-2 [17]): 20 mg/L (≈ 66.7 µM); Virus rating (HEp-2 [17]): 1.2 VR; T/C (Mus musculus [18]): 101%
CNc1nc(N)nc2c1ncn2C1CC(CO)C(O)C1O (stereo not given) | 18 (≈ 61.2 µM) | 1.3 | 320 (≈ 1090 µM) | – | –
Nc1nc(Cl)c2nnn(C3CC(CO)C(O)C3O)c2n1 (stereo not given) | 8 (≈ 26.6 µM) | 0.9 | 81 (≈ 269 µM) | 111 | Virus rating (HEp-2 [7]): 0.6 VR
Nc1nc(N)c2ncn(C3CC(CO)C(O)C3O)c2n1 (stereo not given) | 19 (≈ 67.8 µM) | 4.6 | 0.3 (≈ 1.07 µM) | – | T/C (Mus musculus [15]): 67%; MIC (HEp-2 [7]): 2.3 mg/L (≈ 8.21 µM); Virus rating (HEp-2 [7]): 3.8 VR; T/C (Mus musculus [16]): 70%; T/C (Mus musculus [19]): 102%; T/C (Mus musculus [18]): 89%
Nc1nc(O)c2nnn(C3CC(CO)C(O)C3O)c2n1 (stereo not given) | > 100 | 0 | – | 109 | –
